What all share (assay type): in vivo
Conditions in all cases: 100 = 100% disease control

Test [1] deals with Puccinia recondite f. sp. tritici (the causal agent of wheat leaf rust). Nature of the test: Test A: wheat leaf rust, preventive spray on wheat seedlings, visual disease rating. An outline of the steps: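 This was a preventive test: Puccinia recondite f. sp. tritici inoculum was applied one day after compound spray to run-off. Test suspensions were made in 50/50 acetone/water with 250 ppm surfactant, at 200 ppm (800 g/ha equivalent) or 40 ppm. Visual ratings of % disease control relative to controls were made after 24 h of saturated humidity and 7 growth-chamber days, all at 20° C.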

In test [2] the test system is Septoria tritici (the causal agent of wheat leaf blotch). The test can be described thus: Test B: wheat leaf blotch, preventive spray on wheat seedlings, visual disease rating. A digest of the protocol: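 Preventive test: Septoria tritici spores applied one day after run-off spraying of seedlings (200 ppm equals 800 g/ha; some tests 40 ppm). After 48 h at 24 °C saturated atmosphere and 19 days at 20 °C, disease scored visually as % control relative to untreated plants.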

The test system of test [3] is Botrytis cinerea (the causal agent of tomato Botrytis). Nature of the test: Test C: tomato Botrytis, preventive spray on tomato seedlings, visual disease rating. A digest of the protocol: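 Preventive test: B. cinerea spore inoculation one day after tomato seedlings were sprayed to run-off with compound suspended in 50/50 acetone–water plus 250 ppm surfactant. Plants held 48 h at 20° C in saturated air, then 3 days at 24° C; visual ratings scored 100 (full control) to 0 versus controls; some entries used 40 ppm.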

Test [4] has as its system Blumeria graminis f. sp. tritici (also known as Erysiphe graminis f. sp. tritici, the causal agent of wheat powdery mildew). Nature of the test: Test D: wheat powdery mildew, preventive spray on wheat seedlings, visual disease rating. An outline of the steps: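 Preventive test: seedlings sprayed to run-off and inoculated with powdery mildew spores one day later. Suspensions were made in 50/50 acetone/water with 250 ppm Trem 014 surfactant (200 ppm equals 800 g/ha). Visual ratings after 8 days at 20 °C give percent disease control versus controls.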

Setting [5] is: asterisk: 40 ppm test suspension, 0 = no control.
Setting [6] is: no asterisk: standard test suspension concentration, 0 = no control relative to controls.

Marks after values point to notes of the source that are not given here.

`COc1cc(F)c(-n2c(C)nc(Br)c2C(O)c2ccc(F)cc2F)c(F)c1` (stereo not shown) [compound 412]: the “Test A rating (% disease control, wheat leaf rust)” value in test [1] (setting [5]) is 100* %. The “Test B rating (% disease control, wheat leaf blotch)” value in test [2] (setting [5]) is on record as 100* %. Also, the “Test C rating (% disease control, tomato Botrytis)” value in test [3] (setting [5]) is 0* %. Moreover, the “Test D rating (% disease control, wheat powdery mildew)” value in test [4] (setting [5]) was 0* %.
Consider `Cc1ncc(C(O)c2cccnc2F)n1-c1c(F)cc(F)cc1F` (stereo not shown) [compound 413], for which the “Test A rating (% disease control, wheat leaf rust)” value in test [1] (setting [6]) was 88%. The “Test B rating (% disease control, wheat leaf blotch)” value in test [2] (setting [6]) amounted to 98%. Also, the “Test C rating (% disease control, tomato Botrytis)” value in test [3] (setting [6]) was 0%. In test [4] (setting [6]), the “Test D rating (% disease control, wheat powdery mildew)” value is listed as 0%.
For `Cc1nc(Br)c(C(O)c2cccnc2F)n1-c1c(F)cc(F)cc1F` (stereo not shown) [compound 414], the “Test A rating (% disease control, wheat leaf rust)” value in test [1] (setting [6]) was 100%. Besides, in test [2] (setting [6]), the “Test B rating (% disease control, wheat leaf blotch)” value is recorded as 100%. Further, in test [3] (setting [6]), the “Test C rating (% disease control, tomato Botrytis)” value is listed as 67%. In addition, in test [4] (setting [6]), the “Test D rating (% disease control, wheat powdery mildew)” value turned out to be 13%.
`Cc1cc(F)ccc1C(O)c1cnc(C)n1-c1ccc(F)cc1F` (stereo not shown) [compound 415]: the “Test A rating (% disease control, wheat leaf rust)” value in test [1] (setting [6]) amounted to 74%. For the same compound, the “Test B rating (% disease control, wheat leaf blotch)” value in test [2] (setting [6]) is reported as 18%. In addition, the “Test C rating (% disease control, tomato Botrytis)” value in test [3] (setting [6]) was determined as 0%. In test [4] (setting [6]), the “Test D rating (% disease control, wheat powdery mildew)” value was 0%.
